Data on two compounds can be found in patent publication US20150147436A1, “PRODUCTION OF CHEESE WITH S. THERMOPHILUS” (DuPont Nutrition BioSciences ApS, priority 2011, published 2015).

Test [1] concerns urease enzyme. Put plainly: Floating curd experiment in test tubes (Example 3). The following applies: Lactococci + ur(+) S. thermophilus + urease inhibitor, fermented at 35° C. to pH 4.65, heated at about 66° C. (test tube 3). On the procedure:
Four experiments were conducted in which milk was treated with various bacteria. In experiment 1, only Lactococci bacteria were added. In experiment 2, a blend of Lactococci bacteria and ur(+) S. thermophilus bacteria were added. In experiment 3, a blend of Lactococci bacteria, ur(+) S. thermophilus bacteria, and the urease inhibitor flurofamide were added. In experiment 4, only ur(+) S. thermophilus bacteria were added.
In each experiment, the milk was fermented with the bacteria at 35° C. until the cheese reached a pH of 4.65. A sample of the cheese was placed into a test tube, which was heated at about 66° C. for about 10 minutes. After 10 minutes of heating, a small pipette or thin wire was used to agitate the sample. The samples were held at about 66° C. for another ten minutes, at which time the photograph of the test tubes depicted in FIG. 3, was taken.
Test tube 4 is a positive control that contains ur(+) S. thermophilus, which has urease enzymes that can hydrolyze urea in milk.

Test [2] concerns ur(−) S. thermophilus. Put plainly: Acidification of milk by S. thermophilus with or without sodium formate (Example 2). The following applies: 10 ppm sodium formate, 2% milk, 40° C., no Lactococci, 350 minutes. Type of test: cell-based. On the procedure:
Samples of 2% milk taken from the same source were treated with ur(+) S. thermophilus without formate, ur(−) S. thermophilus without formate, and ur(−) S. thermophilus with 10 ppm sodium formate. Lactoccocci bacteria were not used. The milk was maintained at 40° C., and pH measurements were taken for 350 minutes.
FIG. 2 is a graph showing exemplary results from this experiment.

`NP(N)(=O)NC(=O)c1ccc(F)cc1` [flurofamide]: in test [1], the floating curd result was “no floating curd”.
For `O=C[O-].[Na+]` [sodium formate], the “pH decrease effected by the ur(−) S. thermophilus” value in test [2] was “significantly accelerated”.
